Data set [1] deals with COX-3. Nature of the data set: COX activity of intact tunicamycin-treated insect cells by RIA. The data set is classed as cell-based, canine. The following applies: 10 μg/ml, harvested after 48 hr. Here is the method: Tunicamycin was added to a final concentration of 10 μg/ml to insect cells 1 hr after infection with baculovirus constructs. The cells were cultured and harvested after 48 hr. COX activity of intact cells was determined by radioimmunoassay (RIA) (Salmon, 1978). COX activity in intact Tu-treated cells was compared with activity in untreated cells infected with the appropriate virus (MOI=3).

For a further data set, the target named is T1, mouse COX-2 (Mus musculus, UniProt Q05769).
T1 construct: expressed in transfected cells; host or cells: Sf9 insect cells infected with recombinant baculovirus
T1 sequence (Q05769 18-604): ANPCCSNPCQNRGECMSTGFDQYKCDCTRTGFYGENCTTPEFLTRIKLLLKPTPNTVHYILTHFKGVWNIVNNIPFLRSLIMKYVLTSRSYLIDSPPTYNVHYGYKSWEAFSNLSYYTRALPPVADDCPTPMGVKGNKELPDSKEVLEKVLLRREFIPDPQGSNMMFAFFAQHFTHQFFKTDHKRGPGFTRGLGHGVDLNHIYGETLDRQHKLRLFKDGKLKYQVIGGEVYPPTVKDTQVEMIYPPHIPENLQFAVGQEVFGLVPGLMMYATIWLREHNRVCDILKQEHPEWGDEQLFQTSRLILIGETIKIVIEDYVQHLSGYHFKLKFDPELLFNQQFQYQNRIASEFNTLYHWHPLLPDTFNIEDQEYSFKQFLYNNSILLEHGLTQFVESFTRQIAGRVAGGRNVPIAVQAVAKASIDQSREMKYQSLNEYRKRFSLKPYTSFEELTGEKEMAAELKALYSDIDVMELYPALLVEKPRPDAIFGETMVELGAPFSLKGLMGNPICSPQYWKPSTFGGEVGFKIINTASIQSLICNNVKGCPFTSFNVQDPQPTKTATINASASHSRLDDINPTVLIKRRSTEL
Kind of data set: COX activity (PGE2 formation by RIA) in insect cells expressing COX-2, drug inhibition. Format: cell-based. Here is the method:
(§1) Both COX-3 and PCOX-1a were cloned into the baculovirus expression vector pBlueBac 4.5/V5-His (Invitrogen). Sf9 cells (˜1×10^6) were infected with viral stocks at a multiplicity of infection (MOI) of 3 for expression of COX-3, PCOX-1a, mouse COX-1 and mouse COX-2.
(§2) Sf9 cells were infected with a high titer viral stock at a MOI of3 and cultured for 48 hr. Infected cells expressing COX-3 were aliquoted into tubes (˜1.5×10^6 cells) and centrifuged (1000×g, 5 min). The supernatant was discarded and the cell pellet resuspended in 100 μl serum-free media containing the drug to be tested and preincubated at room temperature for 30 minutes. […] Samples were then centrifuged and 100 μl of the supernatant was assayed for COX activity by RIA for PGE2. Assays were performed multiple times in triplicate. Inhibition curves were constructed and IC50 values were determined using Prism® 3.0 (GraphPad, San Diego).

The next data set deals with T2, mouse COX-1 (Mus musculus, UniProt P22437).
T2 construct: expressed in transfected cells; host or cells: Sf9 insect cells infected with recombinant baculovirus
T2 sequence (P22437 27-602): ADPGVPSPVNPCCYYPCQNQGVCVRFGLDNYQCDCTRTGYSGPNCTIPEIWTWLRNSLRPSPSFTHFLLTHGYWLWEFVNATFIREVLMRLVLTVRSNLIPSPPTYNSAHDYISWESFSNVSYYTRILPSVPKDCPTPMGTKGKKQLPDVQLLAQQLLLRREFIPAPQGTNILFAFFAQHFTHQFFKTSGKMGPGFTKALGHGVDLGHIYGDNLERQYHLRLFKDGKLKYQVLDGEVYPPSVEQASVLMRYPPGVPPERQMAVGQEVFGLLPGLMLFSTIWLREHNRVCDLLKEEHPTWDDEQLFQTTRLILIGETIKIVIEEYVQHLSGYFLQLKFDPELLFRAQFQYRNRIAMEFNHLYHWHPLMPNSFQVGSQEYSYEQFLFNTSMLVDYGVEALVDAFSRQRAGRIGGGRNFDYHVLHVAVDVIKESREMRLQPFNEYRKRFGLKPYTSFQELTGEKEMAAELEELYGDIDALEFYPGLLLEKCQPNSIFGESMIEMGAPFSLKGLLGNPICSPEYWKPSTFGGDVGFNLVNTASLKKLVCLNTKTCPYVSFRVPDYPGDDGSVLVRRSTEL
Nature of the data set: COX activity (PGE2 formation by RIA) in insect cells expressing COX-1, drug inhibition. The data set is classed as cell-based. Here is the method: as §1
Sf9 cells were infected with a high titer viral stock at a MOI of3 and cultured for 48 hr. Infected cells expressing COX-3 were aliquoted into tubes (˜1.5×10^6 cells) and centrifuged (1000×g, 5 min). The supernatant was discarded and the cell pellet resuspended in 100 μl serum-free media containing the drug to be tested and preincubated at room temperature for 30 minutes. Arachidonic acid (100 μl, final concentration 5 or 30 μM) was then added, mixed and incubated (37° C., 10 min). Samples were then centrifuged and 100 μl of the supernatant was assayed for COX activity by RIA for PGE2. Assays were performed multiple times in triplicate. Inhibition curves were constructed and IC50 values were determined using Prism® 3.0 (GraphPad, San Diego).

Data set [2] concerns the target T3, COX-3 (Canis lupus familiaris, UniProt Q8HZR1, E597Q).
T3 construct: V5-His (vector name only); expressed in transfected cells; host or cells: Sf9 insect cells infected with recombinant baculovirus (pBlueBac 4.5/V5-His)
T3 sequence (Q8HZR1 1-633 isoform Q8HZR1-2 E627Q): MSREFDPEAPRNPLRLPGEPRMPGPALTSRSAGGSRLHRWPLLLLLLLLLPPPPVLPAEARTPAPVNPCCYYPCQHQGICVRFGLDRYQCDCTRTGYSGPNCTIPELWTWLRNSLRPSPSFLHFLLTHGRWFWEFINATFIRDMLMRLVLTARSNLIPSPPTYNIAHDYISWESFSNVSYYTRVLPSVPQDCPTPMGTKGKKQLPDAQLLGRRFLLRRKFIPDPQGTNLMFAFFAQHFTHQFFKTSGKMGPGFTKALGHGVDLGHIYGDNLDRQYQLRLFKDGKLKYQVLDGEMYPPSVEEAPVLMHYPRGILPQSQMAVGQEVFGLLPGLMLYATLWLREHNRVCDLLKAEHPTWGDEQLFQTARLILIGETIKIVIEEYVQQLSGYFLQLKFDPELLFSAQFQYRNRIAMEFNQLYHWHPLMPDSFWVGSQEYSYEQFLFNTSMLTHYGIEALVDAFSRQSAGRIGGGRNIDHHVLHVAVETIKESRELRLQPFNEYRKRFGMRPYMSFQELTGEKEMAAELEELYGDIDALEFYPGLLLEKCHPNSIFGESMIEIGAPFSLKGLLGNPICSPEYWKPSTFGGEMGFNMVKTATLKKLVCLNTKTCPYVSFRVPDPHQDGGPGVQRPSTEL
Nature of the data set: COX activity (PGE2 formation by RIA) in insect cells expressing COX-3, drug inhibition. The data set is classed as cell-based, canine. Here is the method: as §1, §2

For data set [3] the following is noted: active breakdown product of dipyrone; cited from earlier work.
[4] abbreviates: 30 μM arachidonic acid, insect cells, PGE2 by RIA, read-out: IC50, μM COX-2.
Where [5] appears, read: 30 μM arachidonic acid, insect cells, PGE2 by RIA, read-out: IC50, μM COX-1.
The mark [6] stands for this setting: 30 μM arachidonic acid, insect cells, PGE2 by RIA, read-out: IC50, μM COX-3.
The mark [7] stands for this setting: substrate conditions of 30 μM arachidonic acid, read-out: IC50 value for COX-3.

Where two headings read alike, the source gives them in different places.

One may read the IC50 as the point on the concentration scale where inhibition reaches its midpoint.

Take tunicamycin: the “COX activity in cells treated with tunicamycin” value in the data set with COX-3 [1] is given as “significantly decreased or abolished”.
Consider `O=C1CCC(N2C(=O)c3ccccc3C2=O)C(=O)N1` (stereo not drawn) [Thalidomide], for which the half-inhibitory concentration (IC50) on mouse COX-2 (setting [4]), on mouse COX-1 (setting [5]) and on COX-3 [2] (setting [6]) was > 1000 µM each time.
`Cn1c(=O)c2c(ncn2C)n(C)c1=O` [Caffeine]: the IC50 on mouse COX-2 (setting [4]), at mouse COX-1 (setting [5]) and at COX-3 [2] (setting [6]) was > 1000 µM throughout.
With `O=C(O)Cc1ccccc1Nc1c(Cl)cccc1Cl` [Diclofenac], the IC50 at mouse COX-1 was 0.035 µM.
For the molecule `CC(=O)Oc1ccccc1C(=O)O` [Aspirin], the IC50 at COX-3 [2] (setting [6]) came to 3.1 µM.
For the molecule `Cc1cc(=O)n(-c2ccccc2)n1C` [Antipyrine], the IC50 on mouse COX-2 was > 1000 µM; against mouse COX-1 it was > 1000 µM; at COX-3 [2] (IC50, μM COX-3, 30 mM arachidonic acid, insect cells, PGE2 by RIA) it was 863 µM; at COX-3 [2] (IC50 value for COX-3, substrate conditions of 30 μM arachidonic acid), 862 µM.
Regarding `Cc1c(N(C)CS(=O)(=O)[O-])c(=O)n(-c2ccccc2)n1C.[Na+]` [Dipyrone], the IC50 at mouse COX-2 (setting [4]) is > 1000 µM; at mouse COX-1 (setting [5]) it was 350 µM; at COX-3 [2] (setting [7]) it was 52 µM. Besides, the “inhibition of COX-2” value at mouse COX-2 (below 1 mM) was “No detectable inhibition”. Besides, at mouse COX-1 (30 μM arachidonic acid (FIG. 13, panel D)), the “concentration inhibiting COX-1, fold higher than COX-3 IC50” value came out at 6.6 fold.
As to `Cc1c(N(C)C)c(=O)n(-c2ccccc2)n1C` [Aminopyrine, 4-dimethylaminoantipyrine], the IC50 on mouse COX-2 (setting [4]) was > 1000 µM; on mouse COX-1 (setting [5]) it was > 1000 µM; at COX-3 [2] (setting [7]), 688 µM.
Turning to `CNc1c(C)n(C)n(-c2ccccc2)c1=O` [4-methylaminoantipyrine], in data set [3], the “concentration reached in plasma” value is 104 µM and the “concentration reached in the central nervous system” value was 86 µM.
For the molecule `O=C([O-])c1ccccc1O.[Na+]` [sodium salicylate], on COX-3 [2], the “sensitivity of COX-3 to the drug compared with COX-1 or COX-2” value was “less sensitive”.
For the molecule `CCOc1ccc(NC(C)=O)cc1` [Phenacetin], the IC50 at mouse COX-2 (setting [4]) is > 1000 µM; at mouse COX-1 (setting [5]), > 1000 µM; on COX-3 [2] (setting [7]), 102 µM.
